Measurements from the CheMixHub viscosity set.

Experiment: xn = mol fraction of the nth substance listed

CCCCCCCCCCCCCC[P+](CCCCCC)(CCCCCC)CCCCCC.c1c[n-]nn1 + CCCCCCn1cc[n+](C)c1.O=S(=O)([N-]S(=O)(=O)C(F)(F)F)C(F)(F)F
viscosity [mPa·s], 100 kPa
Conditions | 293.15 K | 298.15 K | 303.15 K | 308.15 K | 313.15 K | 318.15 K | 323.15 K
x1 = 0.151 | 159 | 122 | 96 | 77 | 62 | 51 | –
x1 = 0.302 | 268 | 200 | 152 | 119 | 94 | 76 | 62
x1 = 0.42 | 402 | 294 | 219 | 168 | 131 | 104 | 84
x1 = 0.55 | 498 | 358 | 262 | 197 | 151 | 118 | 94
x1 = 0.652 | 614 | 437 | 317 | 236 | 180 | 139 | 109
x1 = 0.7 | 725 | 511 | 369 | 274 | 206 | 159 | 125
x1 = 0.865 | 744 | 527 | 382 | 284 | 215 | 166 | 131

C1C[C@@H]2[C@H]3CC[C@H](C3)[C@@H]2C1 + CCCCCO
viscosity [mPa·s], 101 kPa
Conditions | x2 = 0.1465 | x2 = 0.2782 | x2 = 0.3987 | x2 = 0.5049 | x2 = 0.6067 | x2 = 0.6985 | x2 = 0.7827 | x2 = 0.8623 | x2 = 0.9326
293.15 K | 2.919 | 2.901 | 2.955 | 3.058 | 3.19 | 3.372 | 3.549 | 3.718 | 3.916
298.15 K | 2.621 | 2.595 | 2.622 | 2.7 | 2.807 | 2.953 | 3.095 | 3.27 | 3.411
303.15 K | 2.379 | 2.346 | 2.354 | 2.41 | 2.487 | 2.607 | 2.726 | 2.852 | 2.971
313.15 K | 1.972 | 1.92 | 1.914 | 1.922 | 1.957 | 2.033 | 2.107 | 2.18 | 2.253

CC(=O)C=C(C)C + CCCCCOC(C)=O
298.15 K, 101 kPa
Conditions | viscosity [mPa·s]
x1 = 0.11 | 0.7593
x1 = 0.167 | 0.7461
